Earlier results, collected in patent US12544334B2, “Metabolisable pH sensitive polymersomes” (UCL BUSINESS LTD, priority 2018, dated 2026).

Conditions: imidazole-bearing acid before conjugation to the cysteine N-terminus

| Compound | pKa |
| --- | --- |
| O=C(O)Cc1c[nH]cn1 [4-imidazolacetic acid] | 6.6 |
| O=C(O)Cn1ccnc1 [1H-imidazole-1-acetic acid] | 6.8 |
